{"source": "paper PMC4413526", "about": "(AIDS Research and Therapy, 2014)", "key": {"[1]": {"settings": "HIV-1-infected patients; cited from earlier work"}, "HIV": {"test_system": "HIV", "settings": "cited from earlier work"}, "CYP isozymes": {"test_system": "CYP isozymes", "settings": "cited from earlier work"}, "[2]": {"test": "Pharmacokinetic substudy (intensive sampling, non-compartmental analysis)", "settings": "steady state, plasma, substudy n = 60, darunavir 800 mg + cobicistat 150 mg once daily plus N[t]RTIs", "protocol": "The pharmacokinetic substudy included intensive pharmacokinetic sampling over 24 hours and was performed in a subset of patients (target n =48 evaluable) at selected study sites.\nFor the whole study population, sparse blood samples for analysis of study drug plasma concentrations were collected over 24 hours at Weeks 2, 4, 8, 12, 16, 24, 36 and 48. For the pharmacokinetic substudy, plasma samples were collected predose, 1, 2, 3, 3.5, 4, 4.5, 5, 6, 8, 10, 12 and 24 hours post-dose at a visit between Weeks 2 and 8.\nFor the pharmacokinetic substudy, steady-state pharmacokinetic parameters (Cmax, Cmin and AUC24h) were obtained using non-compartmental analysis (WinNonlin® software version 6.2, Pharsight Corporation, Mountain View, CA, USA). The intensive pharmacokinetic substudy data was used to revise an existing 2-compartment population pharmacokinetic model with first-order absorption."}, "[3]": {"test": "Population pharmacokinetics of darunavir (Bayesian feedback analysis)", "settings": "human, in vivo; for AUC(0-t): read-out: Population pharmacokinetic-derived AUC24h, mean (SD)"}, "wild-type virus": {"test_system": "wild-type virus", "settings": "cited from earlier work"}, "[4]": {"test_system": "HIV-1 protease and reverse transcriptase", "test": "Development of resistance (genotype/phenotype testing, PhenoSense GT)", "settings": "two patients (one treatment-experienced, one treatment-naïve) receiving emtricitabine"}, "[5]": {"test_system": "plasma HIV-1 RNA (viral load)", "settings": "treatment-naïve patients in ARTEMIS, TLOVR, ITT analysis; cited from earlier work"}}, "note": "Where two headings read alike, the source gives them in different places. Marks after values point to notes of the source that are not given here."}
{"compound": "CC(C)c1nc(CN(C)C(=O)N[C@@H](CCN2CCOCC2)C(=O)N[C@H](CC[C@H](Cc2ccccc2)NC(=O)OCc2cncs2)Cc2ccccc2)cs1", "note": "[Cobicistat, cobicistat]", "values": [{"measurement": "AUCtau, historical data", "setting": "[1]", "result": 8.3, "unit": "µg·h/mL"}, {"measurement": "Cmax, historical data", "setting": "[1]", "result": 1100, "unit": "ng/mL"}, {"measurement": "Antiviral activity", "setting": "HIV", "result": "no antiviral activity"}, {"measurement": "Induction of CYP isozymes", "setting": "CYP isozymes", "result": "does not induce CYP isozymes"}]}
{"compound": "CC(C)CN(C[C@@H](O)[C@H](Cc1ccccc1)NC(=O)O[C@H]1CO[C@H]2OCC[C@H]21)S(=O)(=O)c1ccc(N)cc1", "note": "[Darunavir, darunavir]", "values": [{"measurement": "Ctau [mean (SD)]", "setting": "[2]", "result": "1311 (969)* ng/ml"}, {"measurement": "AUC(0-t)", "setting": "[3]; 17 treatment-experienced patients, with cobicistat", "result": 120, "unit": "µg·h/mL"}, {"measurement": "concentration at 0 h", "setting": "[3]; 17 treatment-experienced patients, with cobicistat, read-out: Population pharmacokinetic-derived C0h, mean (SD)", "result": 2920, "unit": "ng/mL"}, {"measurement": "AUC(0-t)", "setting": "[3]; 281 treatment-naïve patients, with cobicistat", "result": 101, "unit": "µg·h/mL"}, {"measurement": "concentration at 0 h", "setting": "[3]; 281 treatment-naïve patients, with cobicistat, read-out: Population pharmacokinetic-derived C0h, mean (SD)", "result": 2100, "unit": "ng/mL"}, {"measurement": "AUC(0-t)", "setting": "[3]; Week 48, overall n = 298, with cobicistat", "result": 102, "unit": "µg·h/mL"}, {"measurement": "concentration at 0 h", "setting": "[3]; Week 48, overall n = 298, with cobicistat, read-out: Population pharmacokinetic-derived trough plasma concentration (C0h), mean (SD)", "result": 2150, "unit": "ng/mL"}, {"measurement": "protein-binding adjusted 50% effective concentration", "setting": "wild-type virus", "result": 55, "unit": "ng/mL"}]}
{"compound": "Nc1nc(=O)n([C@@H]2CS[C@H](CO)O2)cc1F", "note": "[Emtricitabine, emtricitabine]", "values": [{"measurement": "Phenotypic resistance associated with emerging M184V N[t]RTI RAM", "setting": "[4]", "result": "associated with phenotypic resistance"}]}
{"compound": "Nc1ccn([C@@H]2CS[C@H](CO)O2)c(=O)n1", "note": "[lamivudine]", "values": [{"measurement": "Phenotypic resistance associated with emerging M184V N[t]RTI RAM", "setting": "[4]", "result": "associated with phenotypic resistance"}]}
{"compound": "darunavir/ritonavir", "values": [{"measurement": "Week 48 virologic response rate", "setting": "[5]", "result": 84, "unit": "%"}]}
